Tests used:
[1] = test system: mushroom tyrosinase; experiment: Mushroom tyrosinase activity assay (L-tyrosine as substrate); format: biochemical; settings: for tyrosinase inhibition relative to kojic acid: fold more than kojic acid; for IC50: mushroom tyrosinase, means ± SEMs of triplicate determinations; for enhancement of tyrosinase inhibitory activity relative to analog 1: versus analog 1
Procedure: 2.2. […] In brief, 20 µL of an aqueous mushroom tyrosinase solution (1000 units/mL) and 170 µL of a substrate mixture containing 345 µM of L-tyrosine and 17.2 mM of sodium phosphate buffer (pH 6.5) were added to wells of a 96-well microplate. […] Amounts of dopachrome produced were assessed by measuring optical densities at 475 nm using a microplate reader (VersaMax®, Molecular Devices, Sunnyvale, CA, USA). […] Experiments were independently conducted three times.

[2] = ROS scavenging activity assay (DCFH-DA/esterase, SIN-1); settings: SIN–1 10 µM; 5, 10, 20 µM
Procedure: 2.13. ROS Scavenging Activity Assay
The ROS scavenging activities of analogs 1–8 and Troloxwere determined as previously described by Ali et al. and Lebel and Bondy. Briefly, 2.5 mM DCFH-DA (2’,7’-dichlorodihydrofluorescein diacetate) (Molecular Probes, Eugene, OR, USA) solution was mixed with esterase (1.5 units/mL) in 50 mM phosphate buffer (pH 7.4), held for 30 min at 37 °C, and keep on ice in the dark until required. Tested compounds (10 µL; final concentrations: 5, 10, and 20 µM) dissolved in DMSO and SIN-1 (3-morpholinosydnonimine) (10 µM) and 180 µL of phosphate buffer in the wells of a black 96-well plate for 30 min. The 50 µL of DCFH-DA-esterase mixture (20 µM) was added. Fluorescence intensities of oxidized DCFH (DCF or 2′,7′-dichlorofluorescein) were measured using a microplate reader (Berthold Advances GmbH & Co., Bad Wildbad, Germany) with excitation and emission wavelengths of 485 and 530 nm, respectively. Trolox was used as the reference control.
Since it has been reported that reactive oxygen species (ROS) are concerned in the regulation of melanogenesis, we examined the ROS scavenging activities of analogs 1–8 using DCFH-DA (2′,7′-dichlorodihydrofluorescein diacetate) and esterase. Trolox and SIN–1 (3-morpholinosydnonimine) were used as the positive control and a ROS generator, respectively. Hydrolysis of DCFA-DA by esterase generates DCFH (2′,7′-dichlorodihydrofluorescein), which reacts with ROS generated by SIN–1 to produce the fluorescent compound DCF (2′,7′-dichlorofluorescein). Thus, ROS scavenging activities of analogs were assessed by measuring DCF fluorescence. […] Test samples including Trolox were treated at three different concentrations (5, 10, or 20 µM).

[3] = test system: B16F10 murine melanoma cells; experiment: B16F10 cell viability (EZ-Cytox assay); format: cell-based
Procedure: 2.8. Viabilities of B16F10 Murine Melanoma Cells Treated with Analogues 2 or 3
The cytotoxic effects of analogs 2 and 3 were examined using B16F10 murine melanoma cells, as previously described. Cell viabilities were determined using the EZ-Cytox cell viability assay kit (Daeil Lab Service Co. Ltd., Seoul, Korea). Briefly, B16F10 cells (density 1 × 10^4 cells/well) were added to the wells of a 96-well microplate and cultured in a humidified 5% CO2 atmosphere at 37 °C for 24 h. Cells were then exposed to analogs 2 or 3 at 0, 1, 2, 5, 10, or 20 µM and incubated in a humidified 5% CO2 atmosphere for 24, 48, or 72 h at 37 °C. At these time points, cells were exposed to 10 µL of EZ-Cytox solution and incubated for 2 h at 37 °C. Optical densities of wells were then measured at 450 nm using a microplate reader (VersaMax®, Molecular Devices, Sunnyvale, CA, USA) to assess cell viability. Experiments were conducted independently 3 times.
Since analogs 2 and 3 had potent inhibitory effects on mushroom tyrosinase, they were subjected to B16F10 murine melanoma cytotoxicity assays. Initially, the cytotoxicities of 2 and 3 were investigated at concentrations of 0, 1, 2, 5, 10, and 20 µM using the EZ-Cytox cell viability assay (EZ-3000; DoGenBio, Seoul, Korea). Cell viability was measured after treatment for 24, 48, or 72 h (Figure 6).

[4] = Peroxynitrite (ONOO−) scavenging activity assay (DHR 123, SIN-1); settings: SIN–1 10 µM; 5, 10, 20 µM
Procedure: 2.14. Peroxynitrite (ONOO^−) Scavenging Activity Assay
Peroxynitrite-scavenging activities were determined as described by Kooy et al. with modification. This method monitors the fluorescence of rhodamine 123, which is formed rapidly when non-fluorescent DHR 123 (dihydrorhodamine 123) (Molecular Probes, Eugene, OR, USA) in the presence of peroxynitrite. The rhodamine buffer solution (pH 7.4) included of 50 mM sodium phosphate, 90 mM sodium chloride, 5 mM potassium chloride, and 100 µM DTPA. The final concentration of DHR 123 was 5 µM. In this assay, the buffer solution was prepared prior to use and then stood on ice. Test compounds (10 µL, final concentrations: 5, 10, and 20 µM) dissolved in DMSO and added to 10 µL SIN-1 (10 µM) and 180 µL rhodamine buffer solution in the wells of a black 96-well plate. Fluorescence intensities of oxidized DHR 123 were measured using a fluorescence plate reader (Berthold Advances GmbH & Co., Bad Wildbad, Germany) with an excitation and emission wavelengths of 485 and 535 nm, respectively. Peroxynitrite scavenging activity was calculated after subtracting background fluorescence from final fluorescence intensity. Results are expressed as means ± standard deviation (SD), and L-penicillamine was used as a positive control.
Several RNS (reactive nitrogen species), including peroxynitrite (ONOO^–) and nitric oxide, are known to be involved in the induction of the melanogenesis. Therefore, we investigated the effects of analogs 1–8 on peroxynitrite scavenging activity using DHR123 (dihydrorhodamine) as a ROS indicator and SIN–1 as an RNS generator. Peroxynitrite generated by SIN–1 oxidizes DHR123 to rhodamine 123, a fluorescent compound. Thus, the effects of analogs on peroxynitrite scavenging ability were determined by measuring rhodamine 123 fluorescence.

Row | Compound | tyrosinase inhibition relative to kojic acid [1] [fold] | IC50 [1] [µM] | enhancement of tyrosinase inhibitory activity relative to analog 1 [1] [fold] | ROS scavenging [2] | ROS scavenging compared with Trolox [2] | cytotoxicity in B16F10 cells, any concentration or time ([3]; 1, 2, 5, 10, 20 µM, 24, 48, 72 h) | peroxynitrite scavenging compared with penicillamine [4] | cytotoxicity in B16F10 cells, 24 h ([3]; 1, 2, 5, 10, 20 µM, 24 h) | cytotoxicity in B16F10 cells, 48 h and 72 h ([3]; 1, 2, 5, 10, 20 µM, 48 h and 72 h)
1 | O=C1/C(=C/c2ccc(O)cc2O)SC(=S)N1C1CCCCC1 [Analog 3, (Z)-3-Cyclohexyl-5-(2,4-dihydroxybenzylidene)-2-thioxothiazolidin-4-one] | 25 | 1.03 ± 0.14 | 63 | significantly and concentration-dependently scavenged ROS | more potently than Trolox | not cytotoxic | much more potently than penicillamine | – | –
2 | O=C1/C(=C/c2ccc(O)c(O)c2)SC(=S)N1C1CCCCC1 [Analog 2, (Z)-3-Cyclohexyl-5-(3,4-dihydroxybenzylidene)-2-thioxothiazolidin-4-one] | 5 | 5.21 ± 0.86 | 13 | significantly and concentration-dependently scavenged ROS | more potently than Trolox | – | much more potently than penicillamine | cytotoxic at 20 µM | cytotoxic at all concentrations

From PMC9598926, “Design and Synthesis of (Z)-5-(Substituted benzylidene)-3-cyclohexyl-2-thioxothiazolidin-4-one Analogues as Anti-Tyrosinase and Antioxidant Compounds: In Vitro and In Silico Insights” (Antioxidants, 2022)
